# Laboratory results reported in patent US20200290034A1, “COMPOSITION AND METHOD FOR REGENERATING CATION EXCHANGE RESINS” (Tygrus, LLC, priority 2019, published 2020).
# Key:
# [1] = Shelf-stability of stored samples; type: physicochemical; settings: closed containers at standard temperature and 50% relative humidity
# Text: The material produced in Example I is separated into individual samples. Some are stored in closed containers at standard temperature and 50% relative humidity to determine shelf-stability. Other samples are subjected to analytical procedures to determine composition. The test samples are subjected to FFTIR spectra analysis and titrated with hydrogen coulometry. The sample material has a molarity ranging from […] strength. The material has a gravimetric range greater than 1.15; with ranges greater than 1.9 in certain instances. The composition is stable and has a 1.87 to 1.78 molar material that contains 8 to 9% of the total moles of acid protons that are not charged balanced.
# [2] = Excess hydrogen ion concentration and pH after admixing with water; settings: 5 ml material admixed in 5 ml deionized and distilled water, standard temperature and pressure
substance,measurement,setting,value
"hydrogen (1+), triaqua-μ3-oxotri sulfate (1:1) [Example I]",shelf-stability,[1],stable
same,excess hydrogen ion concentration,[2],greater than 15 % by volume
same,pH,[2],1
